Experimental data reported in PubChem BioAssay (NCI).
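Growth conditions: 96-well plates. Treatment: test compound, 48 hours, 5 concentrations. Analysis: linear interpolation between bracketing concentrations; unreached endpoints set to highest concentration. TGI marks complete inhibition of growth.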

Assays:
Assay in all cases: NCI-60 cell line screen, 48 h
[1] = tested on: 786-0 renal
[2] = tested on: A498 renal
[3] = tested on: A549 NSCLC
[4] = tested on: ACHN renal
[5] = tested on: BT-549 breast
[6] = tested on: CAKI-1 renal
[7] = tested on: CCRF-CEM leukemia
[8] = tested on: COLO 205 colon
[9] = tested on: DU-145 prostate
[10] = tested on: EKVX NSCLC
[11] = tested on: HCC-2998 colon
[12] = tested on: HCT-116 colon
[13] = tested on: HCT-15 colon
[14] = tested on: HL-60(TB) leukemia
[15] = tested on: HOP-62 NSCLC
[16] = tested on: HOP-92 NSCLC
[17] = tested on: HS 578T breast
[18] = tested on: HT29 colon
[19] = tested on: IGROV1 ovarian
[20] = tested on: K-562 leukemia
[21] = tested on: KM12 colon
[22] = tested on: LOX IMVI melanoma
[23] = tested on: M14 melanoma
[24] = tested on: MALME-3M melanoma
[25] = tested on: MCF7 breast
[26] = tested on: MDA-MB-231 breast
[27] = tested on: MDA-MB-435
[28] = tested on: MDA-N
[29] = tested on: MOLT-4 leukemia
[30] = tested on: NCI-H226 lung
[31] = tested on: NCI-H23 lung
[32] = tested on: NCI-H460 lung
[33] = tested on: NCI-H522 lung
[34] = tested on: NCI/ADR-RES ovarian
[35] = tested on: OVCAR-3 ovarian
[36] = tested on: OVCAR-4 ovarian
[37] = tested on: OVCAR-5 ovarian
[38] = tested on: OVCAR-8 ovarian
[39] = tested on: PC-3 prostate
[40] = tested on: RPMI-8226 leukemia
[41] = tested on: RXF 393 renal
[42] = tested on: SF-268 CNS
[43] = tested on: SF-295 CNS
[44] = tested on: SF-539 CNS
[45] = tested on: SK-MEL-2 melanoma
[46] = tested on: SK-MEL-28 melanoma
[47] = tested on: SK-MEL-5 melanoma
[48] = tested on: SK-OV-3 ovarian
[49] = tested on: SN12C renal
[50] = tested on: SNB-19 CNS
[51] = tested on: SNB-75 CNS
[52] = tested on: SR leukemia
[53] = tested on: SW-620 colon
[54] = tested on: T-47D breast
[55] = tested on: TK-10 renal
[56] = tested on: U251 CNS
[57] = tested on: UACC-257 melanoma
[58] = tested on: UACC-62 melanoma
[59] = tested on: UO-31 renal

With S=c1ssc2c3ssc(=S)c3n(Cc3ccccc3)c12 the TGI [1] was > 100 µM, the TGI [2] was > 100 µM and the TGI [3] was > 100 µM. For the same molecule, the TGI [4] was > 100 µM, the TGI [5] was > 100 µM and the TGI [6] was > 100 µM. For the same molecule, the TGI [7] was 58.2 µM, the TGI [8] was > 100 µM and the TGI [9] was > 100 µM. The TGI [10] was > 100 µM, the TGI [11] was > 100 µM and the TGI [12] was > 100 µM. The TGI [13] was > 100 µM, the TGI [14] was > 100 µM and the TGI [15] was > 100 µM. For the same molecule, the TGI [16] was > 100 µM, the TGI [17] was > 100 µM and the TGI [18] was > 100 µM. The TGI [19] was > 100 µM, the TGI [20] was > 100 µM and the TGI [21] was > 100 µM. The TGI [22] was > 100 µM, the TGI [23] was > 100 µM and the TGI [24] was > 100 µM. The TGI [25] was > 100 µM, the TGI [26] was > 100 µM and the TGI [27] was > 100 µM. For the same molecule, the TGI [28] was > 100 µM, the TGI [29] was 38.9 µM and the TGI [30] was > 100 µM. For the same molecule, the TGI [31] was > 100 µM, the TGI [32] was > 100 µM and the TGI [33] was > 100 µM. The TGI [34] was > 100 µM, the TGI [35] was > 100 µM and the TGI [36] was > 100 µM. For the same molecule, the TGI [37] was > 100 µM, the TGI [38] was > 100 µM and the TGI [39] was > 100 µM. For the same molecule, the TGI [40] was > 100 µM, the TGI [41] was 34.3 µM and the TGI [42] was > 100 µM. For the same molecule, the TGI [43] was > 100 µM, the TGI [44] was 58.9 µM and the TGI [45] was > 100 µM. For the same molecule, the TGI [46] was > 100 µM, the TGI [47] was > 100 µM and the TGI [48] was > 100 µM. The TGI [49] was > 100 µM, the TGI [50] was > 100 µM and the TGI [51] was > 100 µM. For the same molecule, the TGI [52] was > 100 µM, the TGI [53] was > 100 µM and the TGI [54] was > 100 µM. The TGI [55] was > 100 µM, the TGI [56] was > 100 µM and the TGI [57] was > 100 µM. The TGI [58] was > 100 µM and the TGI [59] was 67 µM.
